Source: ChEMBL document CHEMBL1146225, “[1,2,3]Triazolo[4,5-h]quinolones. A new class of potent antitubercular agents against multidrug resistant Mycobacterium tuberculosis strains” (Bioorg Med Chem Lett, 2007)
Converted amounts (≈) assume the structure as drawn.

Assays:
[1] = test system: Mycobacterium tuberculosis; test: Antitubercular activity against Mycobacterium tuberculosis SS4; type: functional
[2] = test system: Mycobacterium tuberculosis; test: Antitubercular activity against Mycobacterium tuberculosis SS5; type: functional
[3] = test system: Mycobacterium tuberculosis; test: Antitubercular activity against Mycobacterium tuberculosis SS9; type: functional
[4] = test system: Mycobacterium tuberculosis; test: Antitubercular activity against Mycobacterium tuberculosis SS3; type: functional
[5] = test system: Mycobacterium tuberculosis; test: Antitubercular activity against Mycobacterium tuberculosis SS7; type: functional
[6] = test system: Mycobacterium tuberculosis; test: Antitubercular activity against Mycobacterium tuberculosis SS2; type: functional
[7] = test system: Mycobacterium tuberculosis; test: Antitubercular activity against Mycobacterium tuberculosis SS8; type: functional
[8] = test system: Mycobacterium tuberculosis; test: Antitubercular activity against Mycobacterium tuberculosis SS10; type: functional
[9] = test system: Mycobacterium tuberculosis; test: Antitubercular activity against Mycobacterium tuberculosis H37Rv; type: functional
[10] = test system: Mycobacterium tuberculosis; test: Antitubercular activity against Mycobacterium tuberculosis SS11; type: functional
[11] = test system: Mycobacterium tuberculosis; test: Antitubercular activity against Mycobacterium tuberculosis SS1; type: functional
[12] = test system: Mycobacterium tuberculosis; test: Antitubercular activity against Mycobacterium tuberculosis SS6; type: functional
[13] = test system: Mycobacterium tuberculosis; test: Effect on mycobacterial growth of Mycobacterium tuberculosis H37Rv infected in human J774A1 cells at 0.5 ug/mL after 7 days; type: functional, J774.A1
[14] = test system: Mycobacterium tuberculosis; test: Effect on mycobacterial growth of Mycobacterium tuberculosis H37Rv infected in human J774A1 cells at 0.25 ug/mL after 7 days; type: functional, J774.A1
[15] = Cytotoxicity against human J774A1; type: cell-based, J774.A1; details: J774A1 cells
[16] = Cytotoxicity against human Hep2 cells; type: cell-based, HEp-2

| Structure (SMILES) | MIC90 [1] | MIC90 [2] | MIC90 [3] | MIC90 [4] | MIC90 [5] | MIC90 [6] | MIC90 [7] | MIC90 [8] | MIC90 [9] | MIC90 [10] | MIC90 [11] | MIC90 [12] | CFU [13] | CFU [14] | CC50 [15] | CC50 [16] |
| --- | --- | --- | --- | --- | --- | --- | --- | --- | --- | --- | --- | --- | --- | --- | --- | --- |
| CCOC(=O)c1cn(Cc2ccc(Br)cc2)c2c(ccc3c2nnn3C)c1=O | > 32 µg/mL | > 32 µg/mL | > 32 µg/mL | > 32 µg/mL | > 32 µg/mL | > 32 µg/mL | > 32 µg/mL | > 32 µg/mL | > 32 µg/mL | > 32 µg/mL | > 32 µg/mL | > 32 µg/mL |  |  |  |  |
| Cn1cc(C(=O)O)c(=O)c2ccc3c(nnn3C)c21 | 2 µg/mL (≈ 7.74 µM) | 0.5 µg/mL (≈ 1.94 µM) | 0.5 µg/mL (≈ 1.94 µM) | 0.5 µg/mL (≈ 1.94 µM) | 0.5 µg/mL (≈ 1.94 µM) | 0.5 µg/mL (≈ 1.94 µM) | 0.5 µg/mL (≈ 1.94 µM) | 0.5 µg/mL (≈ 1.94 µM) | 0.5 µg/mL (≈ 1.94 µM) | 0.5 µg/mL (≈ 1.94 µM) | 0.5 µg/mL (≈ 1.94 µM) | 0.5 µg/mL (≈ 1.94 µM) |  |  |  |  |
| CCOC(=O)c1cn(CCc2ccccc2)c2c(ccc3c2nnn3C)c1=O | > 32 µg/mL | > 32 µg/mL | > 32 µg/mL | > 32 µg/mL | > 32 µg/mL | > 32 µg/mL | > 32 µg/mL | > 32 µg/mL | > 32 µg/mL | > 32 µg/mL | > 32 µg/mL | > 32 µg/mL |  |  |  |  |
| CCOC(=O)c1cn(C)c2c(ccc3c2nnn3C)c1=O | 2 µg/mL (≈ 6.99 µM) | 0.5 µg/mL (≈ 1.75 µM) | 0.5 µg/mL (≈ 1.75 µM) | 0.5 µg/mL (≈ 1.75 µM) | 0.5 µg/mL (≈ 1.75 µM) | 0.5 µg/mL (≈ 1.75 µM) | 0.5 µg/mL (≈ 1.75 µM) | 0.5 µg/mL (≈ 1.75 µM) | 0.5 µg/mL (≈ 1.75 µM) | 0.5 µg/mL (≈ 1.75 µM) | 0.5 µg/mL (≈ 1.75 µM) | 0.5 µg/mL (≈ 1.75 µM) |  |  |  |  |
| CCCn1cc(C(=O)OCC)c(=O)c2ccc3c(nnn3C)c21 | > 32 µg/mL | > 32 µg/mL | > 32 µg/mL | > 32 µg/mL | > 32 µg/mL | > 32 µg/mL | > 32 µg/mL | > 32 µg/mL | > 32 µg/mL | > 32 µg/mL | > 32 µg/mL | > 32 µg/mL |  |  |  |  |
| CCCCn1cc(C(=O)OCC)c(=O)c2ccc3c(nnn3C)c21 | 0.5 µg/mL (≈ 1.52 µM) | 0.5 µg/mL (≈ 1.52 µM) | 0.5 µg/mL (≈ 1.52 µM) | 0.5 µg/mL (≈ 1.52 µM) | 0.5 µg/mL (≈ 1.52 µM) | 0.5 µg/mL (≈ 1.52 µM) | 0.5 µg/mL (≈ 1.52 µM) | 0.5 µg/mL (≈ 1.52 µM) | 0.5 µg/mL (≈ 1.52 µM) | 0.5 µg/mL (≈ 1.52 µM) | 0.5 µg/mL (≈ 1.52 µM) | 0.5 µg/mL (≈ 1.52 µM) | 5000 µL⁻¹ | 8000 µL⁻¹ | > 50 µg/mL | > 50 µg/mL |
| CCCn1cc(C(=O)O)c(=O)c2ccc3c(nnn3C)c21 | 3.2 µg/mL (≈ 11.2 µM) | 3.2 µg/mL (≈ 11.2 µM) | 1.6 µg/mL (≈ 5.59 µM) | 1.6 µg/mL (≈ 5.59 µM) | 3.2 µg/mL (≈ 11.2 µM) | 1.6 µg/mL (≈ 5.59 µM) | 1.6 µg/mL (≈ 5.59 µM) | 1.6 µg/mL (≈ 5.59 µM) | 1.6 µg/mL (≈ 5.59 µM) | 1.6 µg/mL (≈ 5.59 µM) | 1.6 µg/mL (≈ 5.59 µM) | 1.6 µg/mL (≈ 5.59 µM) |  |  |  |  |
| C=CCn1cc(C(=O)O)c(=O)c2ccc3c(nnn3C)c21 | > 32 µg/mL | > 32 µg/mL | > 32 µg/mL | > 32 µg/mL | > 32 µg/mL | > 32 µg/mL | > 32 µg/mL | > 32 µg/mL | > 32 µg/mL | > 32 µg/mL | > 32 µg/mL | > 32 µg/mL |  |  |  |  |
| Cc1ccc(Cn2cc(C(=O)O)c(=O)c3ccc4c(nnn4C)c32)cc1 | > 32 µg/mL | > 32 µg/mL | > 32 µg/mL | > 32 µg/mL | > 32 µg/mL | > 32 µg/mL | > 32 µg/mL | > 32 µg/mL | > 32 µg/mL | > 32 µg/mL | > 32 µg/mL | > 32 µg/mL |  |  |  |  |
| Cn1nnc2c3c(ccc21)c(=O)c(C(=O)O)cn3CCc1ccccc1 | 3.2 µg/mL (≈ 9.19 µM) | 3.2 µg/mL (≈ 9.19 µM) | 0.8 µg/mL (≈ 2.3 µM) | 3.2 µg/mL (≈ 9.19 µM) | 3.2 µg/mL (≈ 9.19 µM) | 0.8 µg/mL (≈ 2.3 µM) | 0.8 µg/mL (≈ 2.3 µM) | 3.2 µg/mL (≈ 9.19 µM) | 0.8 µg/mL (≈ 2.3 µM) | 0.8 µg/mL (≈ 2.3 µM) | 0.8 µg/mL (≈ 2.3 µM) | 3.2 µg/mL (≈ 9.19 µM) |  |  |  |  |
| CCn1cc(C(=O)O)c(=O)c2ccc3c(nnn3C)c21 | 3.2 µg/mL (≈ 11.8 µM) | 1.6 µg/mL (≈ 5.88 µM) | 1.6 µg/mL (≈ 5.88 µM) | 3.2 µg/mL (≈ 11.8 µM) | 3.2 µg/mL (≈ 11.8 µM) | 0.8 µg/mL (≈ 2.94 µM) | 1.6 µg/mL (≈ 5.88 µM) | 1.6 µg/mL (≈ 5.88 µM) | 1.6 µg/mL (≈ 5.88 µM) | 1.6 µg/mL (≈ 5.88 µM) | 1.6 µg/mL (≈ 5.88 µM) | 1.6 µg/mL (≈ 5.88 µM) |  |  |  |  |
| CCn1cc(C(=O)O)c(=O)c2ccc3nn(C)nc3c21 |  |  |  |  |  |  |  |  | 5 µg/mL (≈ 18.4 µM) |  |  |  |  |  |  |  |
| CCn1cc(C(=O)O)c(=O)c2ccc3c(nnn3CC)c21 |  |  |  |  |  |  |  |  | 1.6 µg/mL (≈ 5.59 µM) |  |  |  |  |  |  |  |
| C=CCn1cc(C(=O)OCC)c(=O)c2ccc3c(nnn3C)c21 | > 32 µg/mL | > 32 µg/mL | > 32 µg/mL | > 32 µg/mL | > 32 µg/mL | > 32 µg/mL | > 32 µg/mL | > 32 µg/mL | > 32 µg/mL | > 32 µg/mL | > 32 µg/mL | > 32 µg/mL |  |  |  |  |
| CCOC(=O)c1cn(Cc2ccccc2)c2c(ccc3c2nnn3C)c1=O | > 32 µg/mL | > 32 µg/mL | > 32 µg/mL | > 32 µg/mL | > 32 µg/mL | > 32 µg/mL | > 32 µg/mL | > 32 µg/mL | > 32 µg/mL | > 32 µg/mL | > 32 µg/mL | > 32 µg/mL |  |  |  |  |
| Cn1nnc2c3c(ccc21)c(=O)c(C(=O)O)cn3Cc1ccc(Br)cc1 | > 32 µg/mL | > 32 µg/mL | > 32 µg/mL | > 32 µg/mL | > 32 µg/mL | > 32 µg/mL | > 32 µg/mL | > 32 µg/mL | > 32 µg/mL | > 32 µg/mL | > 32 µg/mL | > 32 µg/mL |  |  |  |  |
| Cn1nnc2c3[nH]cc(C(=O)O)c(=O)c3ccc21 |  |  |  |  |  |  |  |  | 4.8 µg/mL (≈ 19.7 µM) |  |  |  |  |  |  |  |
| Cn1nnc2c3c(ccc21)c(=O)c(C(=O)O)cn3Cc1ccccc1 | > 32 µg/mL | > 32 µg/mL | > 32 µg/mL | > 32 µg/mL | > 32 µg/mL | > 32 µg/mL | > 32 µg/mL | > 32 µg/mL | > 32 µg/mL | > 32 µg/mL | > 32 µg/mL | > 32 µg/mL |  |  |  |  |
| CCCCn1cc(C(=O)O)c(=O)c2ccc3c(nnn3C)c21 | > 32 µg/mL | > 32 µg/mL | > 32 µg/mL | > 32 µg/mL | > 32 µg/mL | > 32 µg/mL | > 32 µg/mL | > 32 µg/mL | > 32 µg/mL | > 32 µg/mL | > 32 µg/mL | > 32 µg/mL |  |  |  |  |
| CCOC(=O)c1cn(Cc2ccc(C)cc2)c2c(ccc3c2nnn3C)c1=O | > 32 µg/mL | > 32 µg/mL | > 32 µg/mL | > 32 µg/mL | > 32 µg/mL | > 32 µg/mL | > 32 µg/mL | > 32 µg/mL | > 32 µg/mL | > 32 µg/mL | > 32 µg/mL | > 32 µg/mL |  |  |  |  |
| CO[C@H]1/C=C/O[C@@]2(C)Oc3c(C)c(O)c4c(O)c(c(/C=N/N5CCN(C)CC5)c(O)c4c3C2=O)NC(=O)/C(C)=C\C=C\[C@H](C)[C@H](O)[C@@H](C)[C@@H](O)[C@@H](C)[C@H](OC(C)=O)[C@@H]1C [RIFAMPIN] | 0.7 µg/mL (≈ 0.851 µM) | 0.5 µg/mL (≈ 0.608 µM) | 0.5 µg/mL (≈ 0.608 µM) | 0.5 µg/mL (≈ 0.608 µM) | 0.8 µg/mL (≈ 0.972 µM) | > 4 µg/mL | 0.5 µg/mL (≈ 0.608 µM) | 0.8 µg/mL (≈ 0.972 µM) | 0.7 µg/mL (≈ 0.851 µM) | 0.5 µg/mL (≈ 0.608 µM) | > 4 µg/mL | > 4 µg/mL |  |  |  |  |
